Results as given in ChEMBL document CHEMBL1138972, “Discovery of potent CRTh2 (DP2) receptor antagonists” (Bioorg Med Chem Lett, 2006).
Calls of active or inactive are those of the source. The rule behind the calls is not given here.

Assays:
[1] = Intrinsic clearance in rat hepatocytes per 10^6 cells
[2] = target: Voltage-gated inwardly rectifying potassium channel KCNH2 (Homo sapiens, UniProt Q12809); test: Binding affinity to hERG in HEK293 cells by radioligand binding assay; format: cell-based
Voltage-gated inwardly rectifying potassium channel KCNH2, sequence (Q12809 whole entry): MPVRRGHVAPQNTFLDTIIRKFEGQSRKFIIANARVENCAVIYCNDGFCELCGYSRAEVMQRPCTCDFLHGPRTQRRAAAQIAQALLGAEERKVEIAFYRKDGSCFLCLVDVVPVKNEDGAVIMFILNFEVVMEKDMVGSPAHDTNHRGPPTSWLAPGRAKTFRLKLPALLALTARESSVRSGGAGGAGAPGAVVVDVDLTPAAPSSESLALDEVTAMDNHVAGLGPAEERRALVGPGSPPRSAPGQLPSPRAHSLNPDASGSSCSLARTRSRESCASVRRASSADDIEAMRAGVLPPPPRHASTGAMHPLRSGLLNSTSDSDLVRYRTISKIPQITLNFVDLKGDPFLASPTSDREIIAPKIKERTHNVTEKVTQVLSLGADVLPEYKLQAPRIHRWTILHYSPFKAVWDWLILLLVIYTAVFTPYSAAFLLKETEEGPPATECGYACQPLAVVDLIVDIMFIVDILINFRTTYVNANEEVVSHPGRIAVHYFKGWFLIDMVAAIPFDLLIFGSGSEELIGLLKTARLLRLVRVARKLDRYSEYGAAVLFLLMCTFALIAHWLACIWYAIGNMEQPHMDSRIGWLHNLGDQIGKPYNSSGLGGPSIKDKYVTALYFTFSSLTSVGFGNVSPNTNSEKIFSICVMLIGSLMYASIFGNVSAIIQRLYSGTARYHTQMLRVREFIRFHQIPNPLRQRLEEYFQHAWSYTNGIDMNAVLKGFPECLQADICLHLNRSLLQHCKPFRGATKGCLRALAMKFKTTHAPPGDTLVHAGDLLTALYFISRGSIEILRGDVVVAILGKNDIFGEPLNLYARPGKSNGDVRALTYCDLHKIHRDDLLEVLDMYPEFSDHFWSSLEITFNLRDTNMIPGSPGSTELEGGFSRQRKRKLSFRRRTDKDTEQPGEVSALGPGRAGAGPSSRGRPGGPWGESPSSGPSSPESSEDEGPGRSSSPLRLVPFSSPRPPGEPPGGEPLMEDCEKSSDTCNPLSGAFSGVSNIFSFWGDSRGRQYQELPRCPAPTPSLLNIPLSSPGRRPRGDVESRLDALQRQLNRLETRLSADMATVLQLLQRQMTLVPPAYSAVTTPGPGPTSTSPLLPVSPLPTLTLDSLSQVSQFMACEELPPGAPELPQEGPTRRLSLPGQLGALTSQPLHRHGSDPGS

[3] = target: T1, Prostaglandin D2 receptor 2 (Homo sapiens) (UniProt Q9Y5Y4); test: Agonist activity at CRTh2 receptor; format: functional
T1 sequence (whole entry): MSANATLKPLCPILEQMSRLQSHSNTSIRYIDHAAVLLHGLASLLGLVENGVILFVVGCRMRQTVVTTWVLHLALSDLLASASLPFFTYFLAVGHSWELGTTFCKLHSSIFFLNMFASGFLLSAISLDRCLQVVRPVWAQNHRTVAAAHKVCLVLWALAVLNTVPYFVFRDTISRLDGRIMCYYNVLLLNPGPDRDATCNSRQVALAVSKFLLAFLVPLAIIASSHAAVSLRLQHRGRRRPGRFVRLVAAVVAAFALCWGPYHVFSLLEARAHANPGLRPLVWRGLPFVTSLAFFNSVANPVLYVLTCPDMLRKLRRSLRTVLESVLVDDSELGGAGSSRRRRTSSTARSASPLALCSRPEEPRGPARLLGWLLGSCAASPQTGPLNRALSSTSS

[4] = target: T2, Prostaglandin D2 receptor (Homo sapiens) (UniProt Q13258); test: Binding affinity to DP1 receptor in HEK293 cells by radioligand binding assay; format: cell-based
T2 sequence (whole entry): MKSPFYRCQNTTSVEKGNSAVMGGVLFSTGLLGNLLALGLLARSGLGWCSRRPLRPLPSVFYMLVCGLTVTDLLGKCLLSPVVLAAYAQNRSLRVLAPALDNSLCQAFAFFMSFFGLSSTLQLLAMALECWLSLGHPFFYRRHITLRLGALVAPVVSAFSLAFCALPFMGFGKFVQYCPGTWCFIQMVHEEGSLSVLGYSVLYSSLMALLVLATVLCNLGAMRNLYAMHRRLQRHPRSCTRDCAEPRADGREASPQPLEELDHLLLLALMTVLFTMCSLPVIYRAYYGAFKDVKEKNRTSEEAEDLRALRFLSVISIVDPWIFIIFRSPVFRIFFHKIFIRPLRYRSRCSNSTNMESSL

[5] = target: T3, Prostaglandin D2 receptor 2 (Homo sapiens, UniProt Q9Y5Y4); test: Displacement of [3H]PGD2 from human CRTh2 expressed in HEK293 cells; format: cell-based
T3 sequence (Q9Y5Y4 whole entry): T1 sequence (whole entry)

[6] = species: Homo sapiens; test: Protein binding in human plasma; conditions: read-out: PPB (converted)
[7] = Intrinsic clearance in human hepatocytes per 10^6 cells
[8] = physchem; conditions: buffer, pH 7.4
Description: Lipophilicity, LogD at pH 7.4

[9] = (§1) Volume of distribution in rat; format: ADME, organism-based; conditions: in vivo, read-out: Vss
[10] = Clearance in rat; format: ADME, organism-based; conditions: in vivo
[11] = (§2) Half life in rat; format: ADME, organism-based; conditions: in vivo
[12] = Protein binding in rat plasma; format: ADME, cell-free; conditions: read-out: PPB (converted)
[13] = target: Prostaglandin G/H synthase 1 (Homo sapiens, UniProt P23219); test: Inhibition of COX1
Prostaglandin G/H synthase 1, sequence (P23219 whole entry): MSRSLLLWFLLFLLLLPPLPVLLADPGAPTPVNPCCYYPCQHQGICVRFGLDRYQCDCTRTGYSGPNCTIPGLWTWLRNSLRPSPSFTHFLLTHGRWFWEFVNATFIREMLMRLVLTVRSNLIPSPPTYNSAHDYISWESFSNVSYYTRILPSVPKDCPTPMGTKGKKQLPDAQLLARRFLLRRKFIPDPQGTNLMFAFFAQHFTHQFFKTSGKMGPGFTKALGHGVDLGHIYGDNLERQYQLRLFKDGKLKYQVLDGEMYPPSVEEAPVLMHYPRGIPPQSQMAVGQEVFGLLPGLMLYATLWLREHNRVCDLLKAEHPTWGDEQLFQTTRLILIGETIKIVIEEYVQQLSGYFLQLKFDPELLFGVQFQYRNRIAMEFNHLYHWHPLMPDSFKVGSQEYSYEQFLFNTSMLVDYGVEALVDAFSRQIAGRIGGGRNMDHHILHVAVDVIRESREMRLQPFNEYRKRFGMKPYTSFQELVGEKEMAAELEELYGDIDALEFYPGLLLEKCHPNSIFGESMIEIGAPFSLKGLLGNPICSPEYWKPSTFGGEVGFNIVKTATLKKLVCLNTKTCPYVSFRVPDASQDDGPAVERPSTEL

[14] = Half life in dog; format: ADME, organism-based, Canis lupus familiaris; conditions: in vivo
[15] = Bioavailability in dog; format: ADME, organism-based, Canis lupus familiaris; conditions: in vivo
[16] = species: Rattus norvegicus; test: as §1; format: ADME, organism-based; conditions: in vivo
[17] = species: Rattus norvegicus; test: as §2; format: ADME, organism-based; conditions: in vivo
[18] = Bioavailability in rat; format: ADME, organism-based; conditions: in vivo
[19] = Clearance in dog; format: ADME, organism-based, Canis lupus familiaris; conditions: in vivo
[20] = Volume of distribution in dog; format: ADME, organism-based, Canis lupus familiaris; conditions: in vivo, read-out: Vss
[21] = target: Cytochrome P450 2C19 (Homo sapiens, UniProt P33261); test: Inhibition at recombinant human CYP2C19; format: ADME
Cytochrome P450 2C19, sequence (P33261 whole entry): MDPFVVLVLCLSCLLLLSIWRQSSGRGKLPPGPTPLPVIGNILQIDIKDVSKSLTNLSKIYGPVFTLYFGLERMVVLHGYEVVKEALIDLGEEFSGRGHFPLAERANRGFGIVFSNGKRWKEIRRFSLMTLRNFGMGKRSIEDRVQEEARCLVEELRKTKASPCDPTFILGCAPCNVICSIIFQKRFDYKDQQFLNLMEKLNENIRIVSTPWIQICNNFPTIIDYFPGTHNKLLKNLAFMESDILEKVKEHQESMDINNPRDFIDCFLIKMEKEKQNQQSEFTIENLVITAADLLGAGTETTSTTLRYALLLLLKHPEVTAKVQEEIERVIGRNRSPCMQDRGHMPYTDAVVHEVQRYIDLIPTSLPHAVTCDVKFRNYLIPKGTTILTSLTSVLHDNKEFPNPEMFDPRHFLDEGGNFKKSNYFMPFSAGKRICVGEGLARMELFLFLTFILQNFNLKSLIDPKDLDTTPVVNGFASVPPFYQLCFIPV

[22] = target: Cytochrome P450 2C9 (Homo sapiens, UniProt P11712); test: Inhibition at CYP2C9; format: ADME
Cytochrome P450 2C9, sequence (P11712 whole entry): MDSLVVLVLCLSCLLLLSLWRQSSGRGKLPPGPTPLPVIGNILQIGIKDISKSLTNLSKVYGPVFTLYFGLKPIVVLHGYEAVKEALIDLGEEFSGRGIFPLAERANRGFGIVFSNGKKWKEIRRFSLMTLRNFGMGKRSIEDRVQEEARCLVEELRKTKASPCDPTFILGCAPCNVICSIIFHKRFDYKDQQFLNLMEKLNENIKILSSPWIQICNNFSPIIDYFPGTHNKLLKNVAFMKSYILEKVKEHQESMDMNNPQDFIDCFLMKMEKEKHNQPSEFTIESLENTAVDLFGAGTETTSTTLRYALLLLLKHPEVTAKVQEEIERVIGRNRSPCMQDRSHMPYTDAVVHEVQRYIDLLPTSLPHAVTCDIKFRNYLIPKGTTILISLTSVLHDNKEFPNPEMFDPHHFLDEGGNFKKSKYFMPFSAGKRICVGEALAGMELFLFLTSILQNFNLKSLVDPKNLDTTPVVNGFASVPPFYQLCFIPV

[23] = target: Aldo-keto reductase family 1 member B1 (Rattus norvegicus, UniProt P07943); test: Inhibition at rat aldose reductase
[24] = target: Sodium-dependent serotonin transporter (Rattus norvegicus, UniProt P31652); test: Inhibition at rat serotonin transporter
Sodium-dependent serotonin transporter, sequence (P31652 whole entry): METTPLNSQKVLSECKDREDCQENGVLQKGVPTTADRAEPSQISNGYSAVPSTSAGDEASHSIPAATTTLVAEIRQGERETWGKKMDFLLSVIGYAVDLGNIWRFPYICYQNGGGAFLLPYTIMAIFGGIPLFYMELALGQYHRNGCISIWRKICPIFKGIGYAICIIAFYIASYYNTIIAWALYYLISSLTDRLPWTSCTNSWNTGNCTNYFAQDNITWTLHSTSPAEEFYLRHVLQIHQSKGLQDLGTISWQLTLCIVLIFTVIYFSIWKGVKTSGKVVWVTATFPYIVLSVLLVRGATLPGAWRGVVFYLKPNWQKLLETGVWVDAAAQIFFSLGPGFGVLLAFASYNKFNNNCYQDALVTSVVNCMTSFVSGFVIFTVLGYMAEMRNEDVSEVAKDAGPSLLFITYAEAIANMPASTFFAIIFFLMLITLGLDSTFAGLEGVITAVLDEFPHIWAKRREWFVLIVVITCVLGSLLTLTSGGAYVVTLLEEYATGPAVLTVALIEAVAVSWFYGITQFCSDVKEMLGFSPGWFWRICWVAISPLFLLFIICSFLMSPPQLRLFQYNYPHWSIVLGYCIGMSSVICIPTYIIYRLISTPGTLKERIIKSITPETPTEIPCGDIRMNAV

[25] = target: T4, Prostaglandin G/H synthase 2 (Homo sapiens, UniProt P35354); test: Inhibition of COX2
T4 sequence (P35354 whole entry): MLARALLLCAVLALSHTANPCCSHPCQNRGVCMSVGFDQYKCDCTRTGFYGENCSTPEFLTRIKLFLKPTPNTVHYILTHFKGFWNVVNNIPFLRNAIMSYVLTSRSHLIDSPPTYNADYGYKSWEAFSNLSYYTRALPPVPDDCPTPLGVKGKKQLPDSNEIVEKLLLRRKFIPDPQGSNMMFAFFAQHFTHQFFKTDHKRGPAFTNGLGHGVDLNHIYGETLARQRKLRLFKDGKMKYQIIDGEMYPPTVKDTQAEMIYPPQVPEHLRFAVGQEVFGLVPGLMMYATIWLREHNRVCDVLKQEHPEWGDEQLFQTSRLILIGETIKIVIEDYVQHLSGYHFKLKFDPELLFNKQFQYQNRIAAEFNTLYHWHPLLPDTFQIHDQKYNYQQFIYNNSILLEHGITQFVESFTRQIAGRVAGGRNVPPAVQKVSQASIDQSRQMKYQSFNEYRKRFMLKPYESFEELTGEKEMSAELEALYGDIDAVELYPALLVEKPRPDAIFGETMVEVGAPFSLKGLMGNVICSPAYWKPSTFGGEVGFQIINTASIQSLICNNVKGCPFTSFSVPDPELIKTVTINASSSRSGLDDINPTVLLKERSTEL

[26] = target: T1, Prostaglandin D2 receptor 2 (Homo sapiens); test: Activity at CRTh2 measured as calcium flux changes in HEK293 cells by FLIPR; format: functional, cell-based

SMILES	hepatocyte CLint [1]	Activity [2]	Activity [3]	Activity [4]	IC50 [5]	fraction unbound [6]	hepatocyte CLint [7]	logD [8]	further results
COc1ccc2c(c1)c(-c1ccnc3cc(Cl)ccc13)c(C)n2CC(=O)O	5 µL/min/1e6 cells	> 6 µM	inactive	> 6 µM	50 nM	0.003	–	–	–
Cc1ccc2c(c1)c(-c1ccnc3ccccc13)c(C)n2CC(=O)O	10.7 µL/min/1e6 cells	> 6 µM	inactive	> 6 µM	21 nM	–	3 µL/min/1e6 cells	–	–
Cc1ccc2c(c1)c(-c1cc(C)nc3ccccc13)c(C)n2CC(=O)O	5 µL/min/1e6 cells	> 6 µM	inactive	> 6 µM	18 nM	0.004	–	2.9	–
Cc1ccc2c(c1)c(-c1ccnc3cc(Cl)ccc13)c(C)n2CC(=O)O	6 µL/min/1e6 cells	> 6 µM	inactive	> 6 µM	8 nM	0.002	3.8 µL/min/1e6 cells	1.6	Vd [9]: 1.4 L/kg; clearance [10]: 6 mL/min/kg; half-life [11]: 6.7 h; fraction unbound [12]: 0.02; IC50 [13]: 400 nM
Cc1ccc2c(c1)c(-c1ccnc3c(Cl)cccc13)c(C)n2CC(=O)O	< 3 µL/min/1e6 cells	> 6 µM	inactive	> 6 µM	2.3 nM	0.006	2 µL/min/1e6 cells	1.3	half-life [14]: 2.4 h
Cc1ccc2c(c1)c(-c1ccnc3cc(C(F)(F)F)ccc13)c(C)n2CC(=O)O	–	> 6 µM	inactive	> 6 µM	5.4 nM	0.004	–	1.8	–
COc1cccc2c(-c3c(C)n(CC(=O)O)c4ccc(C)cc34)ccnc12	7 µL/min/1e6 cells	> 6 µM	inactive	> 6 µM	11 nM	–	–	0.5	bioavailability [15]: 13%
Cc1ccc2c(c1)c(-c1ccnc3ccc(C(F)(F)F)cc13)c(C)n2CC(=O)O	16 µL/min/1e6 cells	> 6 µM	inactive	> 6 µM	68 nM	–	–	1.8	–
Cc1ccc2c(c1)c(-c1ccnc3c(C)cccc13)c(C)n2CC(=O)O	5.5 µL/min/1e6 cells	> 6 µM	inactive	> 6 µM	2.6 nM	–	1.9 µL/min/1e6 cells	–	Vss [16]: 1.4 L/kg; T1/2 [17]: 1.7 h; bioavailability [18]: 76%; fraction unbound [12]: 0.02; clearance [19]: 1 mL/min/kg; bioavailability [15]: 100%; half-life [14]: 5.3 h; Vd [20]: 0.2 L/kg; IC50 [21]: 2500 nM; IC50 [22]: 5000 nM; IC50 [23]: 150 nM; IC50 [24]: 2000 nM; IC50 [13]: 3000 nM; IC50 [25]: 3000 nM
Cc1ccc2c(c1)c(-c1ccnc3c(C#N)cccc13)c(C)n2CC(=O)O	< 3 µL/min/1e6 cells	> 6 µM	inactive	> 6 µM	18 nM	–	–	–	–
Cc1ccc2c(c1)c(-c1ccnc3c(C(F)(F)F)cccc13)c(C)n2CC(=O)O	–	> 6 µM	inactive	> 6 µM	6 nM	0.004	–	1.3	–
Cc1ccc2c(-c3ccnc4cc(Cl)ccc34)c(C)n(CC(=O)O)c2c1	–	> 6 µM	inactive	> 6 µM	125 nM	–	–	–	–
COc1ccc2c(c1)c(CC(=O)O)c(C)n2-c1ccnc2cc(Cl)ccc12	6.5 µL/min/1e6 cells	> 6 µM	inactive	> 6 µM	180 nM	–	1.4 µL/min/1e6 cells	1.7	Vd [9]: 2.3 L/kg; clearance [10]: 11 mL/min/kg; half-life [11]: 2.2 h; bioavailability [18]: 62%; IC50 [21]: 1600 nM; Activity ([26]; filed as antagonist): Antagonist
Cc1ccc2c(c1)c(-c1ccnc3c(S(C)(=O)=O)cccc13)c(C)n2CC(=O)O	–	> 6 µM	inactive	> 6 µM	23 nM	0.064	–	0.3	bioavailability [15]: 5%
Cc1c(CC(=O)O)c2ccccc2n1-c1ccncn1	–	> 6 µM	inactive	> 6 µM	5200 nM	–	–	–	Activity ([26]; filed as partial agonist): Partial agonist
Cc1ccc2c(c1)c(-c1ccnc3c(F)cccc13)c(C)n2CC(=O)O	< 1 µL/min/1e6 cells	> 6 µM	inactive	> 6 µM	7.1 nM	0.009	1.6 µL/min/1e6 cells	0.5	–
